How the values were obtained:
[1] = logP determination by HPLC on a reversed-phase column (C18); format: physicochemical; conditions: for logP^a): HPLC-MS method a); for log P: HPLC-MS
Boophilus microplus = Boophilus microplus - injection test; format: in vivo; conditions: application rate 20 μg/animal; injection into engorged adult female ticks; after 7 days
How it was run: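 Active ingredient in DMSO, 1 μl injected into the abdomen of 5 engorged adult female ticks, then held in a climate-controlled room. Efficacy scored after 7 days from laying of fertile eggs, with non-fertile-looking eggs kept about 42 days for larval hatch; 100% means no fertile eggs.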

Phaedon cochleariae = Phaedon cochleariae - spray test; format: in vivo; conditions: larvae on Chinese cabbage leaf discs, after 7 days
How it was run: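 Chinese cabbage leaf discs sprayed with compound formulated in acetone/DMF and water containing 1000 ppm emulsifier; once dry, infested with mustard beetle larvae. Efficacy (% larvae killed) scored after 7 days.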

Musca domestica = Musca domestica test; format: in vivo; conditions: adult houseflies, after 2 days
Procedure: (§1) Solvent: dimethyl sulphoxide
(§2) To produce an appropriate active ingredient formulation, 10 mg of active ingredient are mixed with 0.5 ml of dimethyl sulphoxide, and the concentrate is diluted with water to the desired concentration.
Vessels containing a sponge treated with sugar solution and the active ingredient formulation of the desired concentration are populated with 10 adult houseflies (Musca domestica).
After 2 days, the kill in % is determined. 100% means that all of the flies have been killed; 0% means that none of the flies have been killed.

Tetranychus urticae = Tetranychus urticae - spray test, OP-resistant; format: in vivo; conditions: bean leaf discs, after 6 days
Procedure: (§3) Solvent: 78.0 parts by weight of acetone and 1.5 parts by weight of dimethylformamide
(§4) Emulsifier: alkylaryl polyglycol ether
(§5) To produce an appropriate active ingredient formulation, 1 part by weight of active ingredient is dissolved using the specified parts by weight of solvent and made up with water containing an emulsifier concentration of 1000 ppm until the desired concentration is attained. To produce further test concentrations, the preparation is diluted with emulsifier-containing water.
Discs of bean leaves (Phaseolus vulgaris) infested by all stages of the greenhouse red spider mite (Tetranychus urticae) are sprayed with an active ingredient formulation of the desired concentration.
After 6 days, efficacy in % is determined. 100% means that all the spider mites have been killed; 0% means that none of the spider mites have been killed.

Ctenocephalides felis = Ctenocephalides felis - oral test; format: in vivo; conditions: application rate 100 ppm in citrated cattle blood; after 2 days
How it was run: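 Compound in DMSO diluted into citrated cattle blood, fed through a parafilm membrane to about 20 unfed adult cat fleas. Kill in % scored after 2 days (100% = all dead).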

Lucilia cuprina = Lucilia cuprina test; format: in vivo; conditions: application rate 100 ppm; L1 larvae; after 2 days
Procedure: as §1, §2
About 20 L1 larvae of the Australian sheep blowfly (Lucilia cuprina) are transferred into a test vessel containing minced horsemeat and the active ingredient preparation of the desired concentration.
After 2 days, the kill in % is determined. 100% means that all the larvae have been killed; 0% means that none of the larvae have been killed.

Spodoptera frugiperda = Spodoptera frugiperda - spray test; format: in vivo; conditions: caterpillars on maize leaf discs, after 7 days
Procedure: as §3, §4, §5
Leaf discs of maize (Zea mays) are sprayed with an active ingredient formulation of the desired concentration and, after drying, populated with caterpillars of the armyworm (Spodoptera frugiperda).
After 7 days, efficacy in % is determined. 100% means that all the caterpillars have been killed; 0% means that no caterpillars have been killed.

[2] = reversed-phase column (C18), Table I-T3

Compound	logP^a) [1]	logP^a) [1, 2]	efficacy (laying of fertile eggs) (Boophilus microplus) [%]	efficacy (Phaedon cochleariae; application rate 500 g/ha) [%]	efficacy (kill) (Musca domestica; application rate 100 ppm) [%]	efficacy (Tetranychus urticae; application rate 500 g/ha) [%]	efficacy (kill) (Ctenocephalides felis) [%]	efficacy (kill) (Lucilia cuprina) [%]	efficacy (Spodoptera frugiperda; application rate 500 g/ha) [%]	efficacy (Phaedon cochleariae; application rate 100 g/ha) [%]	logP^a) ([1]; reversed-phase column (C18))	log P [1, 2]	efficacy (Tetranychus urticae; application rate 100 g/ha) [%]	efficacy (Spodoptera frugiperda; application rate 100 g/ha) [%]	efficacy (kill) (Musca domestica; application rate 4 ppm) [%]
N#CC1(NC(=O)c2cc(-c3cnn(-c4ccc(C(F)(C(F)(F)F)C(F)(F)F)cc4OC(F)(F)F)c3)ccc2Cl)CC1 [I-T3-34]	4.6	4.6	100	100	100	100	100	100	100						
Cc1cc(C(F)(C(F)(F)F)C(F)(F)F)cc(C)c1-n1cc(-c2ccc(Cl)c(C(=O)NC3(C(F)(F)F)CC3)c2)cn1 [I-T3-5]	4.6	4.6	100		100		100	100		100					
CCc1cc(C(F)(C(F)(F)F)C(F)(F)F)cc(C)c1-n1cc(-c2ccc(Cl)c(C(=O)NC3(C#N)CC3)c2F)cn1 [I-T3-66]	4.6	4.6	100	100	80		100	100	100						
N#CC1(NC(=O)c2cc(-c3cnn(-c4ncc(C(F)(F)F)cc4C(F)(F)F)c3)ccc2Cl)CC1 [I-T3-149]			100		100		100	100		100	3.5	3.5			
CCc1cc(C(F)(C(F)(F)F)C(F)(F)F)cc(C)c1-n1cc(-c2ccc(Cl)c(C(=O)NC3CC3)c2F)cn1 [I-T3-68]	4.6	4.8	100	100	80		100	100	100						
Cc1cc(C(F)(C(F)(F)F)C(F)(F)F)cc(C)c1-n1cc(-c2ccc(Cl)c(C(=O)NC3(C#N)CC3)c2F)cn1 [I-T3-65]	4.4	4.3	100	100	100	90	100	100	100						
N#CC1(NC(=O)c2cc(-c3cnn(-c4ccc(OC(F)(F)F)cc4Cl)c3)ccc2Cl)CC1 [I-T3-89]	3.5	3.5	100	100	100	90	100	100	100						
O=C(NC1CC1)c1cc(-c2cnn(-c3ncc(C(F)(F)F)cc3C(F)(F)F)c2)ccc1Cl [I-T3-150]			100		100		100	100			3.6	3.6			
CCc1cc(C(F)(C(F)(F)F)C(F)(F)F)ccc1-n1cc(-c2cncc(C(=O)NC3CC3)c2)cn1 [I-T3-79]	3.3	3.3	100	100	80		95	80	100						
N#CC1(NC(=O)c2cc(-c3cnn(-c4ncc(C(F)(C(F)(F)F)C(F)(F)F)cc4Cl)c3)ccc2Cl)CC1 [I-T3-151]			100		100		100	100		100	4.0	4.0	90	100	
Cc1cc(C(F)(C(F)(F)F)C(F)(F)F)cc(C)c1-n1cc(-c2cnc(C3CC3)c(C(=O)NC3(C#N)CC3)c2)cn1 [I-T3-139]			100		90		100	100		100	4.1	4.1	100	100	
O=C(NCC(F)(F)F)c1cc(-c2cnn(-c3c(Cl)cc(C(F)(C(F)(F)F)C(F)(F)F)cc3C(F)(F)F)c2)ccc1Cl [I-T3-58]	4.7	4.7	100		100		100	100		100			100	100	
O=C(NC1CC1)c1cc(-c2cnn(-c3ccc(C(F)(C(F)(F)F)C(F)(F)F)cc3OC(F)(F)F)c2)ccc1Cl [I-T3-35]	4.7	4.7	100	100			100	100						83	80
Cc1cc(C(F)(C(F)(F)F)C(F)(F)F)cc(C)c1-n1cc(-c2ccc(Cl)c(C(=O)NCC(F)(F)F)c2)cn1 [I-T3-2]	4.7	4.7	100		100		100	100		100			100	100	
O=C(NC1CC1)c1c(Cl)ccc(-c2cnn(-c3c(Cl)cc(C(F)(C(F)(F)F)C(F)(F)F)cc3Cl)c2)c1F [I-T3-73]	4.5	4.5	100	100	100		100	100	100				100		
N#CC1(NC(=O)c2cc(-c3cnn(-c4c(F)cc(C(F)(C(F)(F)F)C(F)(F)F)cc4F)c3)ccc2Cl)CC1 [I-T3-62]	3.9	3.9	100		100		100	100		100			100	100	
Cc1cc(C(F)(C(F)(F)F)C(F)(F)F)cc(C)c1-n1cc(-c2ccc(Cl)c(C(=O)NC3CSC3)c2)cn1 [I-T3-4]	4.7	4.7	100		100		100	100		100			100	100	
COc1ncc(-c2cnn(-c3c(C)cc(C(F)(C(F)(F)F)C(F)(F)F)cc3C)c2)cc1C(=O)N(C)C1CC1 [I-T3-144]			100		100		90	100		100	4.4	4.4			

Source: patent US10150737B2, “Compounds for controlling arthropods” (priority 2013, dated 2018)
